Our source for the IC50 values is patent US20230118795A1, “ARYL OR HETEROARYL PYRIDONE OR PYRIMIDINE DERIVATIVE, PREPARATION METHOD AND USE THEREOF” (SUZHOU ZELGEN BIOPHARMACEUTICALS CO., LTD., priority 2020, published 2023).

The test system of this experiment is NCI-H358 (KRAS^G12C mutation) cell. In words: Cell assay of antiproliferative activity against NCI-H358 cell (Celltiter-Glo, 5 days). It is filed as cell-based. The note with it: 5 days incubation. As to the method:
Cell Assay of Antiproliferative Activity of Compounds Against NCI-H358 (KRAS^G12C Mutation) Cell.
40 μL phosphate buffer was added to the outer wells of the 384 microplate, and 40 μL cell suspension to be tested was added to the other wells. Then the microplate was incubated in a carbon dioxide incubator overnight.
The compounds to be tested were gradiently diluted, each compound was performed 10 concentration gradients (diluted from 50 μM to 0.003 μM) and added 100 nL to the corresponding wells in the microplate. After addition, 40 μl of phosphate buffer was added to each well in rows A and P and columns 1 and 24, and then the microplate was incubated in a carbon dioxide incubator for 5 days.
20 μL of Promega Celltiter-Glo reagent was added to each well of the microplate, and then the luminescence signal was stabilized by oscillating at room temperature for 10 min. Then PekinElmer Envision multi-label analyzer was used to read.
Finally, GraphPad Prism software was used to calculate the IC50 value of the compound and the fitting curve was drawn.
Anti-proliferative activity of the compounds of the present invention against NCI-H358 (KRAS^G12C mutation) cell was shown in Table 1.
In general terms: Cellular ATP, detected with luciferase, serves as a proxy for viable cell number.

pIC50: −log10 of the molar value. Bounds are passed on as bounds.

A word on the pIC50: it is the IC50 on a negative log10 scale, so that one unit is a factor of ten. For the setting “Homo sapiens, NCI-H358, 120 h”, `C=CC(=O)N1CCN(c2nc(=O)n(-c3c(C(C)C)cccc3S(C)(=O)=O)c3nc(-c4ccc(C#N)cc4Cl)c(F)cc23)[C@@H](C)C1` [Example 66, (S)-4-(4-(4-acryloyl-2-methylpiperazin-1-yl)-6-fluoro-1-(2-isopropyl-6-(methylsulfonyl)phenyl)-2-oxo-1,2-dihydropyridino [2,3-d]pyrimidin-7-yl)-3-chlorobenzonitrile] had a pIC50 below 5.00. In turn, `C=CC(=O)N1CCN(c2nc(=O)n(-c3c(C(C)C)cccc3S(C)(=O)=O)c3nc(-c4cccc(C#N)c4Cl)c(F)cc23)[C@@H](C)C1` [Example 65, (S)-3-(4-(4-acryloyl-2-methylpiperazin-1-yl)-6-fluoro-1-(2-isopropyl-6-(methylsulfonyl)phenyl)-2-oxo-1,2-dihydropyridino[2,3-d]pyrimidin-7-yl)-2-chlorobenzonitrile] had a pIC50 (Homo sapiens, NCI-H358, 120 h) below 5.00. Same read-out and setting: then `C=CC(=O)N1CCN(c2nc(=O)n(-c3cccnc3S(C)(=O)=O)c3nc(-c4c(O)cccc4F)c(F)cc23)CC1CC#N` (stereo not drawn) [Example 58, 2-(1-acryloyl-4-(6-fluoro-7-(2-fluoro-6-hydroxyphenyl)-1-(2-(methylsulfonyl)pyridin-3-yl)-2-oxo-1,2-dihydropyridino [2,3-d]pyrimidin-4-yl)piperazin-2-yl) acetonitrile], with 5.00; and `C=CC(=O)N1CCN(c2nc(=O)n(-c3cnccc3S(C)(=O)=O)c3nc(-c4c(O)cccc4F)c(F)cc23)[C@@H](C)C1` [Example 55], with 5.28.

`C=CC(=O)N1CCN(c2nc(=O)n(-c3c(C(C)C)cccc3S(C)(=O)=O)c3nc(-c4c(O)cccc4F)c(F)cc23)[C@@H](C)C1` [Example 10, 4-((S)-4-acryloyl-2-methylpiperazin-1-yl)-6-fluoro-7-(2-fluoro-6-hydroxyphenyl)-1-(2-isopropyl-6-(methylsulfonyl)phenyl) pyridino[2,3-d] pyrimidin-2(1H)-one] showed a pIC50 (Homo sapiens, NCI-H358, 120 h) of 8.00. `C=CC(=O)N1C[C@H](C)N(c2nc(=O)n(-c3c(CC)cccc3S(C)(=O)=O)c3nc(-c4c(O)cccc4F)c(Cl)cc23)C[C@H]1C` (single isomer, unassigned) [Example 84B] showed a pIC50 of 8.22. The same measure, in the same setting: then `C=CC(=O)N1CCN(c2nc(=O)n(-c3cccnc3S(C)(=O)=O)c3nc(-c4c(O)cccc4F)c(F)cc23)[C@@H](C)C1` [Example 88, 4-((S)-4-acryloyl-2-methylpiperazin-1-yl)-6-fluoro-7-(2-fluoro-6-hydroxyphenyl)-1-(2-(methylsulfonyl)pyridin-3-yl) pyridino [2,3-d] pyrimidin-2(1H)-one], with 5.00 to 6.00.

Under “Homo sapiens, NCI-H358, 120 h”, `C=CC(=O)N1CCN(c2nc(=O)n(-c3c(C)cccc3S(C)(=O)=O)c3nc(-c4c(F)cccc4C(F)F)c(F)cc23)[C@@H](C)C1` [Example 9, 4-((S)-4-acryloyl-2-methylpiperazin-1-yl)-7-(2-(difluoromethyl)-6-fluorophenyl)-6-fluoro-1-(2-methyl-6-(methylsulfonyl)phenyl) pyridino [2,3-d] pyrimidin-2 (1H)-one] gave a negative-log IC50 (pIC50) of 6.64. For `C=CC(=O)N1CCN(c2nc(=O)n(-c3c(C4CC4)cccc3S(C)(=O)=O)c3nc(-c4c(F)cccc4F)c(F)cc23)[C@@H](C)C1` [Example 15, (S)-4-(4-acryloyl-2-methylpiperazin-1-yl)-1-(2-cyclopropyl-6-(methylsulfonyl)phenyl)-7-(2,6-difluorophenyl)-6-fluoropyridino [2,3-d] pyrimidin-2(1H)-one], where the note is “Homo sapiens, NCI-H358, 120 h”, the pIC50 was 7.24. `C=CC(=O)N1CCN(c2nc(=O)n(-c3c(C(C)C)cccc3S(C)(=O)=O)c3nc(-c4c(Cl)cccc4C#N)c(F)cc23)[C@@H](C)C1` [Example 67] gave a pIC50 (Homo sapiens, NCI-H358, 120 h) below 5.00. Turning to `C=CC(=O)N1CCN(c2nc(=O)n(-c3c(C)cccc3S(C)(=O)=O)c3nc(-c4c(F)cccc4Cl)c(F)cc23)[C@@H](C)C1` [Example 59, 4-((S)-4-acryloyl-2-methylpiperazin-1-yl)-7-(2-chloro-6-fluorophenyl)-6-fluoro-1-(2-methyl-6-(methylsulfonyl)phenyl) pyridino [2,3-d] pyrimidin-2(1H)-one], where the note is “Homo sapiens, NCI-H358, 120 h”, the pIC50 is 6.70. Consider `C=CC(=O)N1CCN(c2nc(=O)n(-c3c(C4CCC4)cccc3S(C)(=O)=O)c3nc(-c4c(O)cccc4F)c(F)cc23)[C@@H](C)C1` (single isomer, unassigned) [Example 25B], for which the pIC50 is 8.22.

Molecule `C=CC(=O)N1CCN(c2nc(=O)n(-c3cccnc3S(C)(=O)=O)c3nc(-c4c(O)cccc4F)c(F)cc23)CC1CC#N` (stereo not drawn) [Example 92, 2-(1-acryloyl-4-(6-fluoro-7-(2-fluoro-6-hydroxyphenyl)-1-(2-(methylsulfonyl)pyridin-3-yl)-2-oxo-1,2-dihydropyridino [2,3-d]pyrimidin-4-yl)piperazin-2-yl) acetonitrile] had a pIC50 below 5.00. Consider `C=CC(=O)N1CCN(c2nc(=O)n(-c3c(C(C)C)cccc3S(C)(=O)=O)c3nc(-c4cccc(=O)n4C)c(F)cc23)[C@@H](C)C1` [Example 74, (S)-4-(4-acryloyl-2-methylpiperazin-1-yl)-6-fluoro-1-(2-isopropyl-6-(methylsulfonyl)phenyl)-7-(1-methyl-6-oxo-1,6-dihydropyridin-2-yl) pyridino[2,3-d] pyrimidin-2 (1H)-one], for which, under “Homo sapiens, NCI-H358, 120 h”, the pIC50 was below 5.00.

Take `C=CC(=O)N1CCN(c2nc(=O)n(-c3c(C(C)C)ccnc3S(C)(=O)=O)c3nc(-c4c(O)cccc4F)c(F)cc23)[C@@H](C)C1` (single isomer, unassigned) [Example 16A]: the pIC50 is 6.14. On the same count and under the same terms, then `C=CC(=O)N1CCN(c2nc(=O)n(-c3c(C4CC4)cccc3S(C)(=O)=O)c3nc(-c4c(O)cccc4F)c(F)cc23)[C@@H](C)C1` (single isomer, unassigned) [Example 6A], with 6.70. Under “Homo sapiens, NCI-H358, 120 h”, `C=CC(=O)N1CCN(c2nc(=O)n(-c3c(C(C)C)cccc3S(C)(=O)=O)c3nc(-c4cc(C#N)ccc4Cl)c(F)cc23)[C@@H](C)C1` [Example 64, (S)-3-(4-(4-acryloyl-2-methylpiperazin-1-yl)-6-fluoro-1-(2-isopropyl-6-(methylsulfonyl)phenyl)-2-oxo-1,2-dihydropyridino[2,3-d]pyrimidin-7-yl)-4-chlorobenzonitrile] gave a pIC50 of 6.92.

In turn, `C=CC(=O)N1CCN(c2nc(=O)n(-c3c(C4CC4)cccc3S(C)(=O)=O)c3nc(-c4ccccc4F)c(F)cc23)[C@@H](C)C1` [Example 13, (S)-4-(4-acryloyl-2-methylpiperazin-1-yl)-1-(2-cyclopropyl-6-(methylsulfonyl)phenyl)-6-fluoro-7-(2-fluorophenyl) pyridin [2,3-d] pyrimidin-2(1H)-one] showed a pIC50 (Homo sapiens, NCI-H358, 120 h) of 7.82. `C=CC(=O)N1CCN(c2nc(=O)n(-c3c(S(C)(=O)=O)ccnc3C(C)C)c3nc(-c4c(O)cccc4F)c(F)cc23)[C@@H](C)C1` (single isomer, unassigned) [Example 18B] showed a pIC50 of 6.34. `C=CC(=O)N1CCN(c2nc(=O)n(-c3c(C(C)C)ccnc3S(C)(=O)=O)c3nc(-c4c(F)cccc4Cl)c(F)cc23)[C@@H](C)C1` [Example 28, 4-((S)-4-acryloyl-2-methylpiperazin-1-yl)-7-(2-chloro-6-fluorophenyl)-6-fluoro-1-(4-isopropyl-2-(methylsulfonyl)pyridin-3-yl) pyridino[2,3-d] pyrimidin-2(1H)-one] gave a pIC50 (Homo sapiens, NCI-H358, 120 h) of 7.59. Turning to `C=CC(=O)N1CCN(c2nc(=O)n(-c3c(C)cccc3S(C)(=O)=O)c3nc(-c4c(O)cccc4F)c(F)cc23)[C@@H](C)C1` [Example 87, 4-((S)-4-acryloyl-2-methylpiperazin-1-yl)-6-fluoro-7-(2-fluoro-6-hydroxyphenyl)-1-(2-methyl-6-(methylsulfonyl)phenyl) pyridino[2,3-d] pyrimidin-2(1H)-one], the pIC50 (Homo sapiens, NCI-H358, 120 h) is above 7.00. Regarding `C=CC(=O)N1CCN(c2nc(=O)n(-c3ccccc3S(C)(=O)=O)c3nc(-c4c(O)cccc4F)c(F)cc23)CC1CC#N` (stereo not drawn) [Example 56, 2-(1-acryloyl-4-(6-fluoro-7-(2-fluoro-6-hydroxyphenyl)-1-(2-(methylsulfonyl)phenyl)-2-oxo-1,2-dihydropyridino [2,3-d]pyrimidin-4-yl)piperazin-2-yl) acetonitrile], the pIC50 is 5.10. Take `C=CC(=O)N1CCN(c2nc(=O)n(-c3c(C(C)C)ccnc3S(C)(=O)=O)c3nc(-c4ccccc4Cl)c(F)cc23)[C@@H](C)C1` (single isomer, unassigned) [Example 20B]: the negative-log IC50 (pIC50) was 7.89. On the same count and under the same terms, the value for `C=CC(=O)N1CCN(c2nc(=O)n(-c3ccccc3S(C)(=O)=O)c3nc(-c4c(O)cccc4F)c(F)cc23)CC1CC#N` (stereo not drawn) [Example 90, 2-(1-acryloyl-4-(6-fluoro-7-(2-fluoro-6-hydroxyphenyl)-1-(2-(methylsulfonyl)phenyl)-2-oxo-1,2-dihydropyridino [2,3-d]pyrimidin-4-yl)piperazin-2-yl) acetonitrile] was 5.00 to 6.00; that for `C=CC(=O)N1CCN(c2nc(=O)n(-c3c(C(C)C)cccc3S(C)(=O)=O)c3nc(-c4c(Cl)ccc5cn[nH]c45)c(F)cc23)[C@@H](C)C1` [Example 75] was below 5.00.

With `C=CC(=O)N1CCN(c2nc(=O)n(-c3c(C(C)C)cncc3S(C)(=O)=O)c3nc(-c4c(O)cccc4F)c(F)cc23)[C@@H](C)C1` [Example 29], the pIC50 (Homo sapiens, NCI-H358, 120 h) was 7.28. `C=CC(=O)N1CCN(c2nc(=O)n(-c3c(C(C)C)cccc3S(C)(=O)=O)c3nc(-c4ccn[nH]4)c(F)cc23)[C@@H](C)C1` [Example 69, (S)-4-(4-acryloyl-2-methylpiperazin-1-yl)-6-fluoro-1-(2-isopropyl-6-(methylsulfonyl)phenyl)-7-(1H-pyrazol-5-yl) pyridino[2,3-d] pyrimidin-2(1H)-one]: the pIC50 (Homo sapiens, NCI-H358, 120 h) is below 5.00.
